# According to patent US6881749B2, “Pyranoindazoles and their use for the treatment of glaucoma” (Alcon, Inc., priority 2001, dated 2005):
# Experiments:
# [1] = test system: monkey; conditions: due to its α1A receptor activity; cited from earlier work
# [2] = test system: Conscious Cynomolgus Monkeys; assay: IOP response in conscious cynomolgus monkeys; assay type: in vivo, cynomolgus monkey; conditions: dose 100 μg, 6 hours after dose
# [3] = test system: rabbits; conditions: cited from earlier work
smiles,measurement,setting,value
COc1ccccc1N1CCN(CCCNc2c(C)c(=O)n(C)c(=O)n2C)CC1 [5-methylurapidil],effect on IOP,[1],lowers IOP
COc1cc(C[C@@H](C)N)c(OC)cc1I [(R)-DOI],Percent IOP Reduction ± SEM,[2],34.4 ± 4.98%
"CCCN(CCC)C1CCc2cccc(O)c2C1 (stereo not drawn) [Example 8-OH-DPAT, 8-hydroxydipropylaminotetralin]",effect on IOP,[3],reduces IOP
